In BindingDB's records for doi:10.1111/j.1747-0285.2009.00909.x (Queen's University, 2010):
Several values for one entry are separate records, joined by “and”; a condition that tells them apart may be missing. Equal entries are not always repeated.

How the values were obtained:
[1] = target: T1, Heme oxygenase 1 (Rattus norvegicus, UniProt P06762); experiment: Heme Oxygenase; conditions: pH 7.4; 25 °C
T1 sequence (P06762 whole entry): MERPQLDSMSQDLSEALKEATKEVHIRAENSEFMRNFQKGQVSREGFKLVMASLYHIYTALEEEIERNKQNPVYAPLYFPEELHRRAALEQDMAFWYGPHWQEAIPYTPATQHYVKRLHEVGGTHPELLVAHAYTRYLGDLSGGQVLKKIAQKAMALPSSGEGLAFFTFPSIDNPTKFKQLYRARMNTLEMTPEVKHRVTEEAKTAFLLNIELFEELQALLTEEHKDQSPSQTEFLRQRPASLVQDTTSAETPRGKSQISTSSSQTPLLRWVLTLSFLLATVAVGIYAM
Method: (§1) Heme oxygenase activity in rat spleen and brain microsomal fractions was determined by the quantitation of CO formed from the degradation of methemalbumin (heme complexed with albumin). Spleen and brain (SpragueâDawley rats) microsomal fractions were prepared according to the procedure outlined by Appletonet al. Protein concentration of microsomal fractions was determined by a modification of the Biuret method. Incubations for HO activity analysis were performed under conditions for which the rate of CO formation [pmol CO â (min mg protein)] was linear with respect to time and microsomal protein concentration. […] […]

[2] = target: T2, Heme oxygenase 2 (Rattus norvegicus, UniProt P23711); experiment: Heme Oxygenase; conditions: pH 7.4; 25 °C
T2 sequence (P23711 whole entry): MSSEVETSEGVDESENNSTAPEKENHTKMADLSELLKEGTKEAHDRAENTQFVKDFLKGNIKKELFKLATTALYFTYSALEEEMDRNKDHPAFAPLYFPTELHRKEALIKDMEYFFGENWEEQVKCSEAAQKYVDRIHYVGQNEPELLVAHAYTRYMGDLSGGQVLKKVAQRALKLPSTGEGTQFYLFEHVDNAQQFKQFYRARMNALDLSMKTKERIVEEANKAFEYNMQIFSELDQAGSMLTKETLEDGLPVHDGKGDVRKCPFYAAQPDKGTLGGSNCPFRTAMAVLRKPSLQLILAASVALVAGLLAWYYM
Method: as §1

Structure (SMILES)	IC50 [1] [µM]	IC50 [2]
OC(CCc1ccccc1)Cn1ccnc1 (stereo not drawn)	6	–
O=C(CCc1ccccc1)Cn1cccn1 [1-azolyl-4-phenyl-2-butanone, 5]	> 100	> 100 µM
O=C(CCc1ccccc1)Cn1ccnn1 [1-azolyl-4-phenyl-2-butanone, 8]	89	> 100 µM
O=C(CCc1ccccc1)Cn1nccn1 [1-azolyl-4-phenyl-2-butanone, 9]	> 100	> 100 µM
O=C(CCc1ccccc1)Cn1ncnn1 [1-azolyl-4-phenyl-2-butanone, 11]	–	30 µM and > 100 µM
O=C(CCc1ccccc1)Cn1nc2ccccc2n1 [1-azolyl-4-phenyl-2-butanone, 14]	> 100	> 100 µM
Cc1nccn1CC(=O)CCc1ccccc1 [1-azolyl-4-phenyl-2-butanone, 15]	> 100	> 100 µM
O=C(CCc1ccccc1)Cn1ccnc1-c1ccccc1 [1-azolyl-4-phenyl-2-butanone, 16]	> 100	> 100 µM
O=C(CCc1ccccc1)Cn1cnc(Cl)c1Cl [1-azolyl-4-phenyl-2-butanone, 20]	> 100	> 100 µM
O=C(CCc1ccccc1)Cn1cnc(-c2ccccc2)c1-c1ccccc1 [1-azolyl-4-phenyl-2-butanone, 21]	–	> 100 µM
O=C(CCc1ccccc1)Cn1cnc(-c2ccccc2)c1 [1-azolyl-4-phenyl-2-butanone, 24]	–	> 100 µM
O=C(CCc1ccccc1)Cn1cnc(Br)c1 [1-azolyl-4-phenyl-2-butanone, 25]	> 100	> 100 µM
O=C(CCc1ccccc1)Cn1cnc(N(O)O)c1 [1-azolyl-4-phenyl-2-butanone, 26]	> 100	> 100 µM
CSc1ncn(CC(=O)CCc2ccccc2)n1 [1-azolyl-4-phenyl-2-butanone, 31]	> 100	> 100 µM
O=C(CCc1ccccc1)Cn1cnc(N(O)O)n1 [1-azolyl-4-phenyl-2-butanone, 32]	> 100	> 100 µM
CSc1ncnn1CC(=O)CCc1ccccc1 [1-azolyl-4-phenyl-2-butanone, 35]	> 100	> 100 µM
O=C(CCc1ccccc1)Cn1nc(Br)nc1Br [1-azolyl-4-phenyl-2-butanone, 36]	> 100	> 100 µM
CSc1nnnn1CC(=O)CCc1ccccc1 [1-azolyl-4-phenyl-2-butanone, 38]	> 100	> 100 µM
O=C(CCc1ccccc1)Cn1nnnc1-c1ccccc1 [1-azolyl-4-phenyl-2-butanone, 40]	> 100	> 100 µM
CSc1nnn(CC(=O)CCc2ccccc2)n1 [1-azolyl-4-phenyl-2-butanone, 41]	> 100	> 100 µM
COOSc1ncnn1CC(=O)CCc1ccccc1 [1-azolyl-4-phenyl-2-butanone, 46]	> 100	> 100 µM
